Results: patent publication US8324390B2, “Tetrazole-substituted anthranilamides as pesticides” (Bayer CropScience AG, priority 2008, dated 2012)
Read-outs that look alike come from different tables or passages of the source.

What was measured:
[1] = log P determination by HPLC (EEC Directive 79/831 Annex V.A8); assay type: physicochemical
Description: The measurements were carried out using an Agilent 1100 LC system with a 50*4.6 Zorbax Eclipse C18 1.8 μm column (oven temperature 55° C., flow rate 2.0 ml/min).
The following mobile phases were used:
Mobile phase A: acetonitrile+1000 μl of formic acid/l
Mobile phase B: Millipore water+900 μl of formic acid/l

[2] = tested on: caterpillars of the armyworm (Spodoptera frugiperda); assay: Spodoptera frugiperda test (SPODFR spray treatment); assay type: in vivo; details: Spodoptera frugiperda, foliar, read-out: effect in % (caterpillars killed)
From the text: Solvent: 78.0 parts by weight of acetone

[3] = tested on: larvae of the mustard beetle (Phaedon cochleariae); assay: Phaedon test (PHAECO spray treatment); details: Phaedon cochleariae, in Brassica rapa, foliar, read-out: effect in % (beetle larvae killed)
[4] = reversed-phase HPLC, Zorbax Eclipse C18 column, by HPLC according to EEC Directive 79/831 Annex V.A8, read-out: log P
[5] = application rate 100 g/ha, maize leaf discs
[6] = reversed-phase HPLC, Zorbax Eclipse C18 column, determined by HPLC according to EEC Directive 79/831 Annex V.A8, read-out: log P
[7] = by HPLC according to EEC Directive 79/831 Annex V.A8, read-out: log P

chromatographic logP [1, 4] | chromatographic logP [1, 6] | SMILES | pest or weed control at 100 g/ha [2, 5] [%] | pest or weed control at 100 g/ha [3] [%] | chromatographic logP ([1]; log P) | pest or weed control at 100 g/ha ([2]; in Zea mays) [%] | chromatographic logP [1, 7] | chromatographic logP ([1]; HPLC, acetonitrile/water with formic acid, read-out: log P)
3.64 |  | Cc1cc(Cl)cc(C(=O)NC(C)C)c1NC(=O)c1cc(Cn2nnc(C(F)(F)F)n2)nn1-c1ncccc1C(F)(F)F [Example 227] | ≥ 80 | ≥ 80 |  |  |  | 
 |  | Cc1cc(Cl)cc(C(=O)NC(C)C2CC2)c1NC(=O)c1cc(Cn2nnc(C(F)(F)C(F)(F)F)n2)nn1-c1ncccc1Cl (stereo not drawn) [Example 126] |  | ≥ 80 | 4.25 | ≥ 80 |  | 
 |  | CNC(=O)c1cc(Cl)cc(C)c1NC(=O)c1cc(Cn2nnc(C(C)(C)C)n2)nn1-c1ncccc1Cl [Example 103] |  | ≥ 80 | 3.02 | ≥ 80 |  | 
 |  | Cc1cc(C#N)cc(C(=O)NCC#N)c1NC(=O)c1cc(Cn2nnnc2C(F)(F)F)nn1-c1ncccc1Cl [Example 208] |  | ≥ 80 | 2.31 | ≥ 80 |  | 
 | 2.74 | Cc1cc(C#N)cc(C(=O)NC(C)C)c1NC(=O)c1cc(Cn2nnnc2C(F)(F)F)nn1-c1ncccc1Br [Example 482] | ≥ 80 | ≥ 80 |  |  |  | 
 |  | Cc1cc(I)cc(C(=O)NC(C)C2CC2)c1NC(=O)c1cc(Cn2nnc(C(F)(F)F)n2)nn1-c1ncccc1Cl (stereo not drawn) [Example 68] |  | ≥ 80 | 4.01 | ≥ 80 |  | 
 |  | Cc1cc(Br)cc(C(=O)NCC2CC2)c1NC(=O)c1cc(Cn2nnc(C(F)(F)F)n2)nn1-c1ncccc1Cl [Example 47] |  | ≥ 80 | 3.88 | ≥ 80 |  | 
 | 3.77 | Cc1cc(I)cc(C(=O)NC(C)C)c1NC(=O)c1cc(Cn2nnc(C(F)(F)F)n2)nn1-c1ncccc1Br [Example 413] | ≥ 80 | ≥ 80 |  |  |  | 
3.89 |  | O=C(NCC(F)F)c1cc(Cl)cc(Cl)c1NC(=O)c1cc(Cn2nnc(C(F)(C(F)(F)F)C(F)(F)F)n2)nn1-c1ncccc1Cl [Example 396] | ≥ 80 | ≥ 80 |  |  |  | 
 |  | Cc1cc(Cl)cc(C(=O)NC(C)(C)C)c1NC(=O)c1cc(C(C)n2nnc(C(F)(F)F)n2)nn1-c1ncccc1Cl (stereo not drawn) [Example 541] |  | ≥ 80 | 4.1 | ≥ 80 |  | 
 |  | CNC(=O)c1cc(Cl)cc(C)c1NC(=O)c1cc(Cn2nnc(C(F)(F)C(F)(F)F)n2)nn1-c1ncccc1Cl [Example 125] |  | ≥ 80 | 3.39 | ≥ 80 |  | 
3.4 |  | CNC(=O)c1cc(I)cc(C)c1NC(=O)c1cc(Cn2nnc(C(F)(F)F)n2)nn1-c1ncccc1C(F)(F)F [Example 247] | ≥ 80 | ≥ 80 |  |  |  | 
3.66 |  | Cc1cc(Br)cc(C(=O)NC(C)C)c1NC(=O)c1cc(Cn2nnc(C(F)(F)F)n2)nn1-c1ncccc1Br [Example 355] | ≥ 80 | ≥ 80 |  |  |  | 
 |  | Cc1cc(C#N)cc(C(=O)NC(C)(C)C)c1NC(=O)c1cc(Cn2nnc(C(C)(C)C)n2)nn1-c1ncccc1Cl [Example 100] |  | ≥ 80 | 3.44 | ≥ 80 |  | 
 |  | Cc1cc(C)c(NC(=O)c2cc(Cn3nnc(C(F)(F)F)n3)nn2-c2ncccc2Cl)c(C(=O)NC2CCC2)c1 [Example 84] |  | ≥ 80 | 3.42 | ≥ 80 |  | 
 | 3.91 | Cc1cc(Cl)cc(C(=O)NC(C)(C)C)c1NC(=O)c1cc(Cn2nnnc2C(F)(F)C(F)(F)F)nn1-c1ncccc1Br [Example 514] | ≥ 80 | ≥ 80 |  |  |  | 
4.5 |  | Cc1cc(Cl)cc(C(=O)NC(C)C2CC2)c1NC(=O)c1cc(Cn2nnc(C(F)(C(F)(F)F)C(F)(F)F)n2)nn1-c1ncccc1Cl (stereo not drawn) [Example 366] | ≥ 80 | ≥ 80 |  |  |  | 
2.81 |  | Cc1cc(C#N)cc(C(=O)NCC#N)c1NC(=O)c1cc(Cn2nnc(C(F)(F)F)n2)nn1-c1ncccc1C(F)(F)F [Example 253] | ≥ 80 | ≥ 80 |  |  |  | 
 |  | Cc1cc(Br)cc(C(=O)NC2CCC2)c1NC(=O)c1cc(Cn2nnc(C(F)(F)F)n2)nn1-c1ncccc1Cl [Example 50] |  | ≥ 80 | 3.71 | ≥ 80 |  | 

chromatographic logP [1, 4] | chromatographic logP [1, 6] | SMILES | pest or weed control at 100 g/ha [2, 5] [%] | pest or weed control at 100 g/ha [3] [%] | chromatographic logP ([1]; log P) | pest or weed control at 100 g/ha ([2]; in Zea mays) [%] | chromatographic logP [1, 7] | chromatographic logP ([1]; HPLC, acetonitrile/water with formic acid, read-out: log P)
 |  | Cc1cc(I)cc(C(N)=O)c1NC(=O)c1cc(Cn2nnc(C(F)(F)C(F)(F)C(F)(F)F)n2)nn1-c1ncccc1Cl [Example 110] |  | ≥ 80 |  | ≥ 80 | 3.7 | 
 |  | Cc1cc(Cl)cc(C(=O)NCC#N)c1NC(=O)c1cc(Cn2nnc(C(F)(C(F)(F)F)C(F)(F)F)n2)nn1-c1ncccc1Cl [Example 358] |  | ≥ 80 | 3.62 | ≥ 80 |  | 
 |  | O=C(NC1CCC1)c1cc(Cl)cc(Cl)c1NC(=O)c1cc(Cn2nnc(C(F)(F)C(F)(F)F)n2)nn1-c1ncccc1Cl [Example 157] |  | ≥ 80 | 3.92 | ≥ 80 |  | 
4.74 |  | Cc1cc(I)cc(C(=O)NC(C)C2CC2)c1NC(=O)c1cc(Cn2nnc(C(F)(C(F)(F)F)C(F)(F)F)n2)nn1-c1ncccc1Cl (stereo not drawn) [Example 378] | ≥ 80 | ≥ 80 |  |  |  | 
 |  | Cc1cc(Cl)cc(C(=O)NC2CC2)c1NC(=O)c1cc(Cn2nnc(C(F)(F)C(F)(F)C(F)(F)F)n2)nn1-c1ncccc1Cl [Example 4] |  | ≥ 80 |  | ≥ 80 | 3.96 | 
 |  | O=C(NC1CCC1)c1cc(Cl)cc(Cl)c1NC(=O)c1cc(Cn2nnc(C(F)(F)F)n2)nn1-c1ncccc1Cl [Example 62] |  | ≥ 80 | 3.51 | ≥ 80 |  | 
 | 2.91 | CNC(=O)c1cc(C#N)cc(C)c1NC(=O)c1cc(Cn2nnnc2C(F)(F)F)nn1-c1ccccc1C(F)(F)F [Example 490] | ≥ 80 | ≥ 80 |  |  |  | 
3.04 |  | Cc1cc(Br)cc(C(N)=O)c1NC(=O)c1cc(Cn2nnc(C(F)(F)F)n2)nn1-c1ncccc1C(F)(F)F [Example 251] | ≥ 80 | ≥ 80 |  |  |  | 
3.45 |  | Cc1cc(I)cc(C(=O)NC2CC2)c1NC(=O)c1cc(Cn2nnc(C(F)(F)F)n2)nn1-c1ncccc1Br [Example 350] | ≥ 80 | ≥ 80 |  |  |  | 
 |  | Cc1cc(Cl)cc(C(=O)NC2CCC2)c1NC(=O)c1cc(Cn2nnc(C(F)(F)F)n2)nn1-c1ncccc1Cl [Example 49] |  | ≥ 80 | 3.6 | ≥ 80 |  | 
 |  | Cc1cc(Cl)cc(C(=O)NC(C)C)c1NC(=O)c1cc(Cn2nnc(C(F)(F)C(F)(F)C(F)(F)F)n2)nn1-c1ncccc1Cl [Example 1, 2-(3-chloropyridin-2-yl)-5-(5-heptafluoropropyltetrazol-2-ylmethyl)-2H-pyrazole-3-carboxylic acid (4-chloro-2-isopropylcarbamoyl-6-methylphenyl)amide] |  | ≥ 80 |  | ≥ 80 |  | 4.23
3.74 |  | CCC(COC(F)(F)F)NC(=O)c1cc(C#N)cc(C)c1NC(=O)c1cc(Cn2nnc(C(F)(F)F)n2)nn1-c1ncccc1Cl (stereo not drawn) [Example 117] | ≥ 80 | ≥ 80 |  |  |  | 
 |  | Cc1cc(C#N)cc(C(=O)NC2CC2)c1NC(=O)c1cc(Cn2nnnc2C(F)F)nn1-c1ncccc1Cl [Example 468] |  | ≥ 80 | 2.12 | ≥ 80 |  | 
 |  | Cc1cc(C)c(NC(=O)c2cc(Cn3nnc(C(F)(F)F)n3)nn2-c2ncccc2Cl)c(C(=O)NC2CC2)c1 [Example 119] |  | ≥ 80 | 3.04 | ≥ 80 |  | 
 |  | Cc1cc(Cl)cc(C(=O)NC2CC2)c1NC(=O)c1cc(Cn2nnc(C(F)(F)C(F)(F)F)n2)nn1-c1ncccc1Cl [Example 127] |  | ≥ 80 | 3.7 | ≥ 80 |  | 
 | 3.73 | Cc1cc(I)cc(C(=O)NC(C)(C)C)c1NC(=O)c1cc(Cn2nnnc2C(F)(F)F)nn1-c1ncccc1Br [Example 496] | ≥ 80 | ≥ 80 |  |  |  | 
3.28 |  | Cc1cc(Cl)cc(C(=O)NCC#N)c1NC(=O)c1cc(Cn2nnc(C(F)(F)F)n2)nn1-c1ncccc1C(F)(F)F [Example 252] | ≥ 80 | ≥ 80 |  |  |  | 
 | 3.48 | Cc1cc(C#N)cc(C(=O)NCC(F)(F)F)c1NC(=O)c1cc(Cn2nnc(C(F)(F)F)n2)nn1-c1ccccc1Cl [Example 537] | ≥ 80 | ≥ 80 |  |  |  | 
 | 2.81 | CNC(=O)c1cc(C#N)cc(C)c1NC(=O)c1cc(Cn2nnc(C(F)(F)F)n2)nn1-c1ccccc1 [Example 431] | ≥ 80 | ≥ 80 |  |  |  | 
